The text below walks through data of patent US20250214973A1, “1,4,5-TRISUBSTITUTED-1,2,3-TRIAZOLES AND USES THEREOF” (UNIVERSITY OF PUERTO RICO, priority 2022, published 2025).

Data set [1] concerns MDA-MB-231. In words: Initial screening, inhibition of migration (wound gap). It is filed as cell-based. The following applies: Homo sapiens; for inhibition at 0.5 µM: read-out: Inh. of migration (converted). The procedure: In addition, the inhibition of migration of MDA-MB-231 was determined via the following procedure:
Prior to assays, cells were grown until 80-90% confluence was observed. We used a 75 cm^2 flask for 2.6×10^5 cells/mL in 10 mL and for a 25 cm^2 flask 1.44×10^5 cells/mL in 5 mL. The cells were washed with PBS to remove all traces of FBS. We added 2 mL for a 25 cm^2 flasks or 4 mL for a 75 cm^2 flasks trypsin, and incubated 5-10 min at 37° C. At the end of the incubation time, cells were re-suspended and counted with hemocytometer using 1:2 dilutions with Trypan blue. Subsequently, cell viability was calculated. In a 12 well tissue culture plate, we used the plastic pattern to draw a fine space with a fine marker on the bottom of the plate. Cells were seeded at 1.5-2.2×10^5 cells/mL in 1 mL and incubated for 24 h. Cells were then rinsed with PBS and incubated in starving media (0.5% FBS) overnight. All controls and drugs were tested in triplicate. The negative control for each drug was prepared according to the drug's DMSO concentration. […] The wound was made using a sterile pipette tip of 200 μL. Cells were then rinsed very gently with media without FBS and media with negative controls was added. After a 24 h incubation, the gap distance was evaluated using the software Lumera Infinity Analyze 6.4.0. Pictures were taken at 0, 8, 12 and 24 h using a 10× objective in an Inverted Laboratory Microscope Leica DM IL LED, and an Infinity1-3 3.1 Megapixel USB 2.0 camera CMOS. The percentage of migration was calculated using the following formula: […]

For data set [2], the system named is MDA-MB-435. In words: Cell viability assay (MTT). In kind it is cell-based, human. The following applies: for effect on viability of MDA-MB-435 / GI50: 0-1000 nM; for effect on viability of MDA-MB-435: 72 h; for GI50: MTT, 72 hrs, read-out: GI50 MDA-MB-435. The procedure: Cells plated at equal density were treated at 500 nM of compounds. After 72 hours, cell viability was measured by a MTT assay. n=3; * p<0.05, ** p<0.01, *** p<0.001.
(§1) Cells plated at equal density were treated at 250 nM of 4c at 250 nM.
(§2) Data from 3 biologic replicates each with 2 technical replicates. Four parameter dose-response curves generated using GraphPad Prism are shown.
[…]. GI50 was calculated using Graph pad Prism.
(§3) […] Using CellTiter 96 Non-Radioactive Cell Proliferation Assay (Promega, Corp.) according to manufactures' instructions, formazan was used as an indicator of viable cells at an absorbance 570 nm in a Tecan Microplate Reader M100. Data was calculated as fold change from vehicle and fitted using the 4′parameter logic nonlinear regression model in GraphPad Prism software. (n=3 biologic replicates: with 3 technical replicates each).
A range of compounds were tested by MTT assays for cell viability in MDA-MB-231 triple negative breast cancer (TNBC) cells and MDA-MB-435 HER2++ cancer cells. […].

The test system of the next data set is MCF-7. In words: Initial screening, SRB assay GI50. The following applies: Homo sapiens, MCF7, 48 hrs. It is filed as cell-based. The protocol: (§4) For initial screening, the GIso of compounds 4a-4h in the cell lines MDA-MB-231, MDA-MB-435 and MCF-7 was determined via the SRB-assay for 48 hrs as follows:
(§5) A stock solution of compounds was prepared at 50 mM in 100% DMSO. For cells preparation, a flask of 75 cm^2 or 25 cm^2 were used for 2.6×10^5 cells/mL or 1.44×10^5 cells/mL, respectively, with an 80-90% of confluence. Cells were washed with PBS and trypsinized. The concentration of cells was determined using a 1:2 dilutions with Trypan Blue and a hemocytometer. After cell count, the concentration was adjusted to have a 7.0-10.0×10^4 cells/mL. Approximately 100 μL of cells suspension, compounds, control positive and control negative were added in triplicates to a 96 well plate. Positive control used was doxorubicin, and the negative control was DMSO 0.1%. All compounds (4a-h) at 50, 25, 12.5, 6.3, and 1.6 μM were incubated with cells at 37° C. for 48 hrs. For fixation, cold TCA 50% was used and incubated at 4° C. for 1 h. Wells were washed and dried prior to tincture with 100 μL of SRB 0.4%. To remove excess of SRB, acetic acid was used. For analysis, TRIS-BASE Solution (pH=10.5) was used and shaken prior to reading using an ELISA reader at 540 nm and the software SoftMax Pro 4.8. For each compound, 50% growth inhibition (GI50) was calculated from Sigmoidal dose-response curves (variable-slope) that were generated with data obtained from experiments carried out in triplicates (GI50 values were generated with GraphPad Prism V. 6.02, GraphPad Software, Inc.).
A general note: Sulforhodamine B stains cellular protein and so reports cell mass.

In data set [3] the test system is MDA-MB-435. In words: Initial screening, SRB assay GI50. It is filed as cell-based. The following applies: Homo sapiens, 48 hrs, read-out: MDA-MB435 GI50. The protocol: as §4, §5
The subject of data set [4] is MDA-MB-231. Put plainly: Initial screening, SRB assay GI50. It is filed as cell-based. The following applies: Homo sapiens, 48 hrs. The procedure:
as §4, §5

The next data set has as its system Rac. In words: Rac activation pulldown (GST-CRIB of PAK) in MDA-MB-435 cells. In kind it is cell-based, human. The following applies: 24 hours.
From the text: (§6) Cells were lysed and equal amounts of proteins were subjected to pull-down assays using a GST-fusion protein of the Cdc42-rac interactive binding (CRIB) domain of P21-activated kinase (PAK). The pulldowns of Rac.GTP and whole cell lysates were western blotted with a pan Rac1/2/3 antibody.
as §6

Data set [5] deals with MDA-MB-231. Put plainly: Cell viability assay (MTT). It is filed as cell-based. The following applies: Homo sapiens; for inhibition at […]: MDA-MB-231, 250 nM for 48 hours (footnote a; title says 500 nM), read-out: % growth inhibition MDA-MB-231. The procedure: Cells plated at equal density were treated at 500 nM of compounds. […]
as §1, §2
Cell viability relative to vehicle (100%) is shown.
as §3
A range of compounds were tested by MTT assays for cell viability in MDA-MB-231 triple negative breast cancer (TNBC) cells and MDA-MB-435 HER2++ cancer cells.

Turning to `CCn1c2ccccc2c2cc(-n3nnc(C(O)c4ccco4)c3-c3ccccc3)ccc21` (stereo not shown) [Compound 4a, (1-(9-ethyl-9H-carbazol-3-yl)-5-phenyl-1H-1,2,3-triazol-4-yl) (furan-2-yl) methanol], in the data set with MDA-MB-231 [1] (at 6.6 μM, read-out: Inh. of migration), the inhibition at 6.6 µM was 55 ± 13.6%. In addition, the cytotoxicity at 0.5 µM with MDA-MB-435 [2] (Homo sapiens, MDA-MB-435, 500 nM, 72 hours, read-out: decrease in cell viability, MDA-MB-435) is roughly 80%. Moreover, the GI50 (as a rule, the concentration that inhibits growth by half) with MCF-7 was determined as 20.6 µM; in the data set on MDA-MB-435 [3], 0.36 µM; in the data set with MDA-MB-231 [4], 17.5 µM.
Regarding `CCn1c2ccccc2c2cc(-n3nnc(C(=O)NCCCN4CCOCC4)c3-c3ccccc3)ccc21` [Compound 9, 1-(9-ethyl-9H-carbazol-3-yl)-N-(3-morpholinopropyl)-5-phenyl-1H-1,2,3-triazole-4-carboxamide], the “% Rac inhibition” value in the data set on Rac (250 nM) is on record as 250 nM : <20%. Moreover, the “effect on viability of MDA-MB-435” value in the data set with MDA-MB-435 [2] is “reduced the viability”. In addition, the GI50 with MDA-MB-435 [2] (Homo sapiens, MDA-MB-435) was greater than 10 µM. In addition, the inhibition at […] in the data set on MDA-MB-231 [5] came to 13%.
Take `CCn1c2ccccc2c2cc(-n3nnc(C(=O)O)c3-c3ccccc3)ccc21` [Compound 7, 1-(9-Ethyl-9H-carbazol-3-yl)-5-phenyl-1H-1,2,3-triazole-4-carboxylic acid]: in the data set with MDA-MB-435 [2], the “effect on viability of MDA-MB-435” value is listed as “reduced the viability”. Also, the inhibition at […] in the data set with MDA-MB-231 [5] came to 29%.
Take `CCn1c2ccccc2c2cc(-n3nnc(C(O)c4ccc([N+](=O)[O-])cc4)c3-c3ccccc3)ccc21` (stereo not shown) [Compound 4f, (1-(9-ethyl-9H-carbazol-3-yl)-5-phenyl-1H-1,2,3-triazol-4-yl) (4-nitrophenyl) methanol]: the inhibition at 0.5 µM in the data set on MDA-MB-231 [1] was 22.1%. In the data set on MDA-MB-231 [1] (at 2.2 μM, read-out: Inh. of migration), the inhibition at 2.2 µM was 61.1 ± 6.12%. Further, the GI50 in the data set on MCF-7 stood at 9.7 µM; in the data set on MDA-MB-435 [3], 7.5 µM; in the data set with MDA-MB-231 [4], 11.2 µM.
As for `CCn1c2ccccc2c2cc(-n3nnc(C(O)c4ccccc4)c3-c3ccccc3)ccc21` (stereo not shown) [Compound 4h, (1-(9-ethyl-9H-carbazol-3-yl)-5-phenyl-1H-1,2,3-triazol-4-yl) (phenyl) methanol], the inhibition at 0.5 µM with MDA-MB-231 [1] is 11.1%. Moreover, the inhibition at 4.9 µM in the data set on MDA-MB-231 [1] (at 4.9 μM, read-out: Inh. of migration) was 65.4 ± 11.9%. Moreover, the results for the GI50 with MCF-7, in the data set with MDA-MB-435 [3] and in the data set with MDA-MB-231 [4] were 9.6 µM, 22.6 µM and 24.3 µM, respectively.
Consider `CCn1c2ccccc2c2cc(-n3nnc(C(=O)N4CCOCC4)c3-c3ccccc3)ccc21` [Compound 8, (1-(9-ethyl-9H-carbazol-3-yl)-5-phenyl-1H-1,2,3-triazol-4-yl) (morpholino) methanone], for which the “% Rac inhibition” value in the data set on Rac (250 nM) is on record as 250 nM : <20%. In addition, in the data set with MDA-MB-435 [2], the “effect on viability of MDA-MB-435” value is on record as “did not have an effect”. In addition, the GI50 with MDA-MB-435 [2] (Homo sapiens, MDA-MB-435) is roughly 1 µM. In addition, the inhibition at […] in the data set with MDA-MB-231 [5] is -11%.
In the case of `CCn1c2ccccc2c2cc(-n3nnc(C(O)c4ccc(C)cc4)c3-c3ccccc3)ccc21` (stereo not shown) [Compound 4g, (1-(9-ethyl-9H-carbazol-3-yl)-5-phenyl-1H-1,2,3-triazol-4-yl) (p-tolyl) methanol], the inhibition at 1.6 µM with MDA-MB-231 [1] (at 1.6 μM, read-out: Inh. of migration) turned out to be 15.1 ± 10.7%. For the same molecule, the figures for the concentration for 50% growth inhibition (GI50) in the data set on MCF-7, with MDA-MB-435 [3] and in the data set on MDA-MB-231 [4] were 13.5 µM, 2.2 µM and 7.9 µM, respectively.
Regarding `CCOC(=O)c1nnn(-c2ccc3c(c2)c2ccccc2n3CC)c1-c1ccccc1` [Compound 6, Ethyl 1-(9-ethyl-9H-carbazol-3-yl)-5-phenyl-1H-1,2,3-triazole-4-carboxylate], in the data set with MDA-MB-435 [2], the “effect on viability of MDA-MB-435” value is “reduced the viability”. For the same molecule, in the data set with MDA-MB-435 [2] (Homo sapiens, MDA-MB-435), the GI50 was roughly 5 µM. In addition, the inhibition at […] with MDA-MB-231 [5] amounted to 32%.
In the case of `CCn1c2ccccc2c2cc(-n3nnc(C#N)c3-c3ccccc3)ccc21` [Compound 5, 1-(9-ethyl-9H-carbazol-3-yl)-5-phenyl-1H-1,2,3-triazole-4-carbonitrile], the “% Rac inhibition” value in the data set on Rac (10 nM) is roughly 30%; in the data set with Rac (50 nM) it was greater than 90%; with Rac (100 nM), greater than 90%. In addition, the GI50 in the data set on MDA-MB-435 [2] (Homo sapiens, MDA-MB-435) is 0.045 µM. Also, the “cytotoxicity relative to MBQ-167” value in the data set with MDA-MB-435 [2] (MDA-MB-435, 72 h GI50) is on record as roughly 3 ×. The inhibition at […] with MDA-MB-231 [5] worked out at 46%. Also, the cytotoxicity at […] with MDA-MB-231 [5] (250 nM, 48h, text prints MDA-MB-435 TNBC, read-out: inhibition of cell viability) was found to be 50%.
Take `CCn1c2ccccc2c2cc(-n3nnc(C(O)c4ccc(OC)cc4)c3-c3ccccc3)ccc21` (stereo not shown) [Compound 4e, (1-(9-ethyl-9H-carbazol-3-yl)-5-phenyl-1H-1,2,3-triazol-4-yl) (4-methoxyphenyl) methanol]: the inhibition at 0.5 µM in the data set on MDA-MB-231 [1] was 36.1%. Also, the inhibition at 5.3 µM in the data set with MDA-MB-231 [1] (at 5.3 μM, read-out: Inh. of migration) was 57 ± 12.3%. The GI50 in the data set with MCF-7 is 10.6 µM; in the data set with MDA-MB-435 [3] it was 32.9 µM; in the data set with MDA-MB-231 [4], 26.2 µM.
`CCn1c2ccccc2c2cc(-n3nnc(C(=O)c4cccs4)c3-c3ccccc3)ccc21` [Compound 10, (1-(9-Ethyl-9H-carbazol-3-yl)-5-phenyl-1H-[1,2,3]triazol-4-yl)-thiophen-2-yl-methanone]: the concentration for 50% growth inhibition (GI50) with MCF-7 turned out to be 0.19 µM; in the data set on MDA-MB-435 [3], 23.3 µM; with MDA-MB-231 [4] it was 0.915 µM.
On to `CCn1c2ccccc2c2cc(-n3nnc(C(O)c4cccs4)c3-c3ccccc3)ccc21` (stereo not shown) [Compound 4d, (1-(9-ethyl-9H-carbazol-3-yl)-5-phenyl-1H-1,2,3-triazol-4-yl) (thiophen-2-yl) methanol], for which the inhibition at 0.5 µM in the data set with MDA-MB-231 [1] is 8.7%. Besides, the inhibition at 4.1 µM with MDA-MB-231 [1] (at 4.1 μM, read-out: Inh. of migration) amounted to 57.5 ± 10.6%. The GI50 in the data set on MCF-7 came out at 12 µM; in the data set with MDA-MB-435 [3], 19.6 µM; with MDA-MB-231 [4], 20.4 µM.
